In US10821177B2, “Induction of differential stress resistance and uses thereof” (University of Southern California, priority 2007, dated 2020):
Entries after “also recorded” stand apart in the source; their conditions may differ. Read-outs that look alike come from different tables or passages of the source. Marks after values point to notes of the source that are not given here.

Experiments:
[1] = test system: NXS2 neuroblastoma cells; settings: for No toxicity deaths: deaths / mice
Source text: (§1) The murine NX3IT28 cell line was generated by hybridization of the GD2-negative C1300 murine neuroblastoma cell line (A/J background) with murine dorsal root ganglional cells from C57BL16J mice, as previously described. The NXS2 sublime was then created by the selection of NX3IT28 cells with high GD2 expression.
Six-to-seven-week-old female NJ mice, weighing 15-18 g were purchased from Harlan Laboratories (Harlan Italy, S. Pietro al Natisone, Italy) and housed in sterile enclosures under specific virus and antigen-free conditions. All procedures involving mice and their care were reviewed and approved by licensing and ethical committee of the National Cancer Research Institute, Genoa, Italy, and by the Italian Ministry of Health.
(§2) N J mice were pretreated with 1 mg/kg/day doses of human octreotide (OCT, ProSpec-Tany TechnoGene, Rehovot, Israel) for 4 days given slowly through the tail vein in a volume of 100 pl and then injected intravenously with murine neuroblastoma NXS2 cell line (200,000/mouse), as previously described. After tumor cell inoculum, some groups of animals were starved for 48 hours and then i.v. treated with 80 mg/kg of Etoposide Teva (Teva Pharma B.V., Mijdrecht, Holland), administered as a single dose. Additional daily doses of OCT were administered for 4 days after chemotherapy. Control groups of mice without diet starvation and OCT treatment were also investigated.
(§3) To determine toxicity and efficacy, mice were monitored routinely for weight loss and general behavior. […] Survival time was used as the main criterion for determining the efficacy of each treatment.
The statistical significance of differential survival between experimental groups of animals was determined by Kaplan-Meier curves and log-rank […] test by the use of StatDirect statistical software (Camcode, Ashwell, UK).
as §1, with “C57BL/6J” for “C57BL16J”, “subline” for “sublime”
as §2, with “Six-to-seven-week-old female A/J mice, weighing 15-18 g were purchased from Harlan Laboratories (Harlan Italy, S. Pietro al Natisone, Italy) and housed in sterile enclosures under specific virus and antigen-free conditions. All procedures involving mice and their care were reviewed and approved by licensing and ethical committee of the National cancer Research Institute, Genoa, Italy, and by the Italian Ministry of Health. A/J” for “N J”, “μl” for “pl”, “injection,” for “inoculum,”
The statistical significance of differential survival between experimental groups of animals was determined by Kaplan-Meier curves and log-rank (Peto) test by the use of StatDirect statistical software (CamCode, Ashwell, UK). In some experiments, four-week-old female CD1 mice (Harlan), weighing 18-20 g were used to evaluate stress resistance after 60-hour diet starvation. These animals, i.v. injected with 110 mg/kg etoposide, were monitored routinely for weight loss and general behavior. Survival time was used as the main criterion for determining the differential stress resistance after short-term starvation.

[2] = test system: athymic (Nude-nu) mice; test: Resistance to high-dose etoposide (100 mg/kg) in athymic (Nude-nu) mice; format: in vivo, mouse; settings: 100 mg/kg etoposide
Description: In other experiments, four-week old female athymic (Nude-nu) mice (Harlan), weighing 20-22 gr were used to evaluate stress resistance after a 48-hour starvation. These animals were i.v.-injected with 100 mg/Kg etoposide and then monitored routinely for weight loss and general behavior.

[3] = humans; cited from earlier work
[4] = test system: CD1 mice; test: Resistance to high-dose etoposide (110 mg/kg) in CD1 mice after 60-hour starvation; format: in vivo, mouse; settings: 110 mg/Kg etoposide i.v., with or without 60-hour STS
Description: In some experiments, four-week-old female CD1 mice (Harlan), weighing 18-20 g were used to evaluate stress resistance after 60 hours of starvation. These animals, i.v. injected with 110 mg/kg etoposide, were monitored routinely for weight loss and general behavior. Survival time was used as the main criterion for determining the differential stress resistance after short-term starvation.

[5] = test system: A/J mice; test: Resistance to high-dose etoposide (80 mg/kg) in A/J mice after STS and/or octreotide
Description: as §2, §3
as §2, with “Six-to-seven-week-old female A/J mice, weighing 15-18 g were purchased from Harlan Laboratories (Harlan Italy, S. Pietro al Natisone, Italy) and housed in sterile enclosures under specific virus and antigen-free conditions. All procedures involving mice and their care were reviewed and approved by licensing and ethical committee of the National cancer Research Institute, Genoa, Italy, and by the Italian Ministry of Health. A/J” for “N J”, “μl” for “pl”, “injection,” for “inoculum,”

[6] = test system: LID mice; test: High-dose etoposide in LID mice; format: in vivo, mouse; settings: 100 mg/kg etoposide i.v.; difference in survival not significant
Description: FIG. 21. Resistance to high-dose chemotherapy in LID mice. All mice received an i.v. injection of 100 mg/kg etoposide and were single caged throughout the experiment. The toxicity, evaluated by (A) percent survival and (B) daily weight measurements, are shown. p-value was calculated by log rank test (p=0.06, n=10).

[7] = test system: mice; test: Octreotide protection of mice against paraquat; format: in vivo, mouse; settings: octreotide treatment
[8] = test system: NXS2 neuroblastoma cells; test: Effect of octreotide on etoposide cytotoxicity in NXS2 cells, trypan blue; format: cell-based, mouse; settings: 10 or 50 micromolar octreotide, etoposide 1-3 μM, 72 hours
Description: FIG. 8. Survival of neuroblastoma (NXS2)-bearing mice. All mice were inoculated i.v. with 200,000 NXS2 cells/mouse on day 4. The different groups were treated as follows: A) Gr. 1: Control (16 mice)=i.v. inoculation with NSX2 tumor cells on day 4. Gr. 2: Oct (8 mice)=pre-treatment with 1 mg/kg/day octreotide for 4 days before and after tumor injection on day 4. Gr. 3: Oct/STS/Oct (8 mice)=pre-treatment with 1 mg/kg/day Oct before tumor cell injection on day 4+48-hour STS on days 4-6+post-treatment with 1 mg/kg/day Oct on days 8-11. Gr. […] Viability was determined by counting the cells with a contrast phase microscope. The proportion of dead (or living) cells was calculated by dividing the number of dead (or living) cells by the total number of cells per field. […]
NXS2 neuroblastoma cells treated with different concentrations of etoposide (1-3 μM) in presence or absence of octreotide (10 and 50 μM) for 72 hours were harvested by scraping, washed with complete medium, and incubated with trypan blue (0.04%; Sigma; St. Louis, Mo.) for 1 minute at 37° C. The cells were then placed in a Burker chamber (Tecnovetro, Monza Milan, Italy) and counted by viewing with a contrast phase microscope (Olympus Optical Co LTD, Tokyo, Japan). […] The proportion of dead (or living) cells was calculated by dividing the number of dead (or living) cells by the total number of cells per field.

[9] = test system: cortical neurons from E18 rat embryos; settings: pre-treatment with inhibitor
Description: FIG. 23. […] Cortical neurons from E18 rat embryos were cultured onto 96-well plates (A) or glass coverslips in 6-well plates (B). On 10-14 DIV, the neurons were pre-treated with MEK1/ERK1/2 inhibitors U0126 or SL327. Oxidative stress was induced by hydrogen peroxide or menadione. Cell viability was measured with MTT survival assay (A) or live/dead assay (B). C) % death was calculated from the number of dead (red) and live (green) cells.

[10] = test system: C6 glioma cells; test: Cyclophosphamide cytotoxicity by LDH release in C6 glioma cells; format: cell-based, rat; settings: 100 ng/ml IGF-I
Description: Primary mixed glial cells were obtained from the cerebral cortex of 1 to 3 day old Sprague Dawley rat pups (Charles River) as described before. Cells cultured for 10-14 days in DMEM/F12 medium with 10% fetal bovine serum (FBS) were used in assays. C6, A10-85, 9L and RG2 rat glioma cell lines and LN229 human glioma cell line and SH-SY5Y human neuroblastoma cell line were maintained in DMEM/F12 medium with 10% FBS at 37° C. under 5% CO2.
Cells were seeded into 96-well microliter plates at 20,000-30,000 cells/well and incubated for 2 days. Cells were washed with phosphate buffered saline (PBS) prior to treatments as indicated in the text. All treatments were performed at 37° C. under 5% CO2.
Glucose restriction was done by incubating cells in glucose free DMEM (Invitrogen) supplemented with either low glucose (0.5 gL) or normal glucose (1.0 gL) for 24 hours. Serum restriction was done by incubating cells in DMEMIF12 with either 10% or 1% FBS for 24 hours. IGF-I treatment was carried out by incubating cells for 48 hours in DMEM/F12 with 1% FBS and rhIGF-I (100 n g/ml, ProSpec-Tany TechnoGene, Rehovot, Israel), which is shown to be within the IGF-I level range for middle age humans. To antagonize IGF-I receptor activity, cells were incubated with neutralizing monoclonal anti-IGF-IR antibody (aIR3, 1 pg/ml; Calbiochem) in DMEM/F12 1% FBS for 24 hours.
Cytotoxicity was measured by either LDH release using the CytoTox 96 Non-Radioactive Cytotoxicity Assay kit (Promega) or the ability to reduce methylthiazolyldiphenyltetrazolium bromide (MTT). % LDH release was determined with reference to the maximum and background LDH release of control cells. […]
Cyclophosphamide (CP, Sigma) was used for in vitro chemotherapy studies. […] Cytotoxicity was measured by either lactate dehydrogenase released using the CytoTox 96 Non-Radioactive Cytotoxicity Assay kit (Promega) or the ability to reduce methylthiazolyldiphenyl-tetrazolium bromide (MTT). LDH released into the medium by lysed cells were measured with a 10-minute enzymatic assay that converts a tetrazolium salt (INT) into a red formazan product.

[11] = test system: primary rat cortical neurons; test: IGF-I and paraquat oxidative toxicity, MTT, cortical neurons; format: cell-based; settings: 100 ng/ml IGF-I 24 hr, 100 μM paraquat
Description: (§4) FIG. 12. […] Primary rat cortical neurons or PC12 cells incubated in 1% serum and 4 g/L glucose were treated for 24 hr with vehicle, 100 μM of paraquat, 100 ng/ml of IGF-I followed by 100 μM of paraquat, or 100 ng/ml of IGF-1 alone and were then subjected to MTT reduction activity assay to assess cell viability. Data from 4 independent experiments are normalized to control and expressed as the mean±S.E.M.
Primary neurons from embryonic day 18 Sprague-Dawley rat cerebral cortices were dissociated in neurobasal medium (Invitrogen) supplemented with 0.5 mM L-glutamine, 25 μM L-glutamic acid and 2% B-27 and plated at 640 cells/mm^2 in 96-well plates which were pre-coated with 10 microg/ml poly-D-lysine dissolved in Borax buffer (0.15 M, pH 8.4). Neurons were maintained at 37° C. in 5% CO2 in neurobasal medium supplemented with B-27 and 0.5 mM L-glutamine for 4 days.
Primary rat neurons and PC12 cells were treated with IGF-1 and paraquat to determine the effect of IGF-1 on oxidative stress. Cortical neurons were treated for 24 hours in Eagle's minimal essential medium (Invitrogen) supplemented with 21 mM glucose and 1% horse serum. PC12 cells were plated at 5×10^4 cells/well onto poly-D-lysine coated. 96-well plates and were grown for 24 hours in F12K 1% HS. […] Survival was determined by the MTT assay and presented as percent ratio of treated to control.

[12] = test system: PC12 cells; test: IGF-I and paraquat oxidative toxicity, MTT, PC12 cells; format: cell-based, rat; settings: 100 ng/ml IGF-I 24 hr, 100 μM paraquat
Description: as §4
Primary rat neurons and PC12 cells were treated with IGF-1 and paraquat to determine the effect of IGF-1 on oxidative stress. Cortical neurons were treated for 24 hours in Eagle's minimal essential medium (Invitrogen) supplemented with 21 mM glucose and 1% horse serum. PC12 cells were plated at 5×10^4 cells/well onto poly-D-lysine coated. 96-well plates and were grown for 24 hours in F12K 1% HS. Both types of cells were then treated with either 100 μM of paraquat, IGF-1 (100 ng/ml) followed 30 minutes later by paraquat (100 μM) or IGF-1 (100 ng/ml) alone in appropriate media. Survival was determined by the MTT assay and presented as percent ratio of treated to control.

[13] = Table 1, mice with metastases / mice
[14] = Table 1, mice with metastases / mice, 200,000 NXS2 cells i.v.
[15] = Table 2, all mice followed until death, necropsy
[16] = Table 2, early etoposide toxicity deaths not considered
[17] = Table 2, followed until death, necropsy

With COc1cc([C@@H]2c3cc4c(cc3[C@@H](O[C@@H]3O[C@@H]5CO[C@@H](C)O[C@H]5[C@H](O)[C@H]3O)[C@H]3COC(=O)[C@H]23)OCO4)cc(OC)c1O [Eto, etoposide] as the molecule, how does the “day until which mice did not develop tumors” value ([1]; NXS2-injected mice without STS) read?
Its value is 80 days.

What about the “Median survival (days)” value ([1]; Table 1) of the same molecule?
Its value is 90* days.

What about the “Survival Range” value ([1]; Table 1) of the same molecule?
Its value is 87 to 90 days.

And the Hemorrhagic ascites ([1]; Table 1, affected mice / mice)?
The Hemorrhagic ascites was 1/3*.

And the “Adrenal glaud (metastases)” value [1, 13]?
Its value is 0/3*.

What about the “Kidneys (metastases)” value [1, 13] of the same molecule?
The value was 1/3*.

And the “Ovaries (metastases)” value [1, 13]?
Its value is 1/3*.

What about the “Liver (metastases)” value [1, 14] of the same molecule?
Its value is 1/3*.

And the “Survival Range” value ([1]; Table 2)?
Its value is 87 to 140 days.

What about the “Liver (metastases)” value [1, 15] of the same molecule?
The value was 3/3.

What about the No toxicity deaths ([1]; Table 2) of the same molecule?
The No toxicity deaths was 3/6.

What about the “Median survival” value [1, 16] of the same molecule?
Its value is 130 days.

And the “Adrenal gland (metastases)” value [1, 17]?
Its value is 0/3.

What about the Hemorrhagic ascites [1, 17] of the same molecule?
Its Hemorrhagic ascites is 3/3.

What about the “Kidneys (metastases)” value [1, 17] of the same molecule?
The value was 3/3.

What about the “Ovaries (metastases)” value [1, 17] of the same molecule?
The value was 0/3.

What about the “mice killed by etoposide” value ([2]; nude mice) of the same molecule?
The value was 56%.

What about the “weight change after etoposide” value ([2]; nude mice) of the same molecule?
The value was “lost weight”.

And the “excreted within 48 hours” value [3]?
Its value is “up to 90%”.

And the “mice killed by etoposide” value [4]?
The value was “all”.

And the “mice killed by etoposide” value ([5]; 80 mg/Kg etoposide i.v., A/J mice)?
Its value is 43%.

And the “weight lost in the four days after etoposide treatment” value ([5]; 80 mg/Kg etoposide, control mice)?
The value was “approximately 20%”.

What about the “resistance of LID mice compared to controls” value [6] of the same molecule?
Its value is “less resistant”.

For C[C@@H](O)[C@@H]1NC(=O)[C@H](CCCCN)NC(=O)[C@@H](Cc2c[nH]c3ccccc23)NC(=O)[C@H](Cc2ccccc2)NC(=O)[C@@H](NC(=O)[C@H](N)Cc2ccccc2)CSSC[C@@H](C(=O)N[C@H](CO)[C@@H](C)O)NC1=O [OCT, octreotide], which “Median survival” value ([1]; Table 1) is on record?
The value was 33 days.

And the “Survival Range” value ([1]; Table 1)?
The value was 31 to 37 days.

And the Hemorrhagic ascites ([1]; Table 1, affected mice / mice)?
The Hemorrhagic ascites was 8/8.

And the “Adrenal glaud (metastases)” value [1, 13]?
The value was 2/8.

What about the “Kidneys (metastases)” value [1, 13] of the same molecule?
The value was 8/8.

And the “Ovaries (metastases)” value [1, 13]?
The value was 8/8.

What about the “Liver (metastases)” value [1, 14] of the same molecule?
Its value is 8/8.

What about the “Survival Range” value ([1]; Table 2) of the same molecule?
Its value is 31 to 37 days.

What about the “Liver (metastases)” value [1, 15] of the same molecule?
The value was 8/8.

And the No toxicity deaths ([1]; Table 2)?
Its No toxicity deaths is 0/8.

What about the “Median survival” value [1, 16] of the same molecule?
The value was 33 days.

And the “Adrenal gland (metastases)” value [1, 17]?
The value was 2/8.

What about the Hemorrhagic ascites [1, 17] of the same molecule?
Its Hemorrhagic ascites is 8/8.

And the “Kidneys (metastases)” value [1, 17]?
Its value is 8/8.

What about the “Ovaries (metastases)” value [1, 17] of the same molecule?
Its value is 8/8.

What about the “protection against NXS2-dependent death” value ([1]; octreotide alone, absence of short-term starvation) of the same molecule?
Its value is “did not protect”.

And the mice that died ([2]; octreotide co-treatment and/or 48-hour starvation)?
Its mice that died is “all”.

What about the “protection of mice against the superoxide generator paraquat” value [7] of the same molecule?
The value was “sufficient to protect”.

What about the “protection against etoposide toxicity” value ([5]; octreotide alone, mice) of the same molecule?
Its value is “not sufficient to protect”.

And the “sensitization of NXS2 cells to etoposide treatment” value [8]?
The value was “did not sensitize”.

For N#CC(=C(/N)Sc1ccccc1N)/C(C#N)=C(\N)Sc1ccccc1N [U0126], which “resistance of neurons to oxidative stress (hydrogen peroxide or menadione)” value [9] is on record?
The value was “protects neurons against oxidative stress”.

What does the source list for “IGF-I: rhIGF-I (ProSpec-Tany TechnoGene), 100 ng/ml”?
increase in the toxicity of CP to C6 glioma cells [10]: minor increase; also recorded: did not increase; sensitization to oxidative toxicity [11]: sensitizes; sensitization to oxidative toxicity [12]: not in PC12 cells
